# Results from publication PMC7817688, “Identification of 3-chymotrypsin like protease (3CLPro) inhibitors as potential anti-SARS-CoV-2 agents” (Communications Biology, 2021).
# Several values for one entry are separate records, joined by “and”; a condition that tells them apart may be missing. Identical values can stand only once. Numbered stars: 1 amine (or outer) side, 2 acyl side, 3 side chain; on linkers, the order of the positions; unused ones are H or OH. Bridge positions count the residues as written; N and C are the ends. Square brackets hold non-standard residues; d marks the D form. Peptide text beside a SMILES is read from it. * marks the point of attachment. hTyr(3S-OH,4S-OH,3'-OSO3H) = N[C@H](C(=O)O)[C@H](O)[C@@H](O)c1ccc(O)c(OS(=O)(=O)O)c1; Orn(4R-OH,5R-OH) = O=C([C@H](C[C@@H](O)[C@@H](O)N[*:3])N[*:1])[*:2]; Pro(3S-OH,4S-Me) = C[C@H]1CN[C@H](C(=O)O)[C@H]1O; X1 = CCCCCOc1ccc(-c2cc(-c3ccc(C(=O)*)cc3)no2)cc1; Gln(3R-OH) = NC(=O)C[C@@H](O)[C@H](N)C(=O)O; Hyp = O=C(O)[C@@H]1C[C@@H](O)CN1
# Target: SARS-CoV-2 3CLpro enzyme (Severe acute respiratory syndrome coronavirus 2, UniProt P0DTD1)
# Test: biochemical
# Conditions: for percent enzymatic activity, individual values / percent enzymatic activity, AVG / inhibition at 50 µM: 50 µM drug; for percent enzymatic activity, individual values / percent enzymatic activity, AVG: DMSO treated control = 100%, data of Figs. 2-4; for percent enzymatic activity, AVG: mean of 3 values; for IC50: drugs 0 to 100 µM, 50 µM substrate, non-linear four variable fit, read-out: IC50 for SARS-CoV-2 3CL protease; for inhibitory effect towards 3CLpro enzymatic activity (in words): in vitro enzymatic assay at the tested doses; for inhibition at 50 µM / inhibition at 100 µM: read-out: inhibition of 3CLpro enzymatic activity; for inhibition at 100 µM: 100 µM drug
# [1] = dose-dependent study, 0.097656 uM, individual values
# [2] = dose-dependent study, 0.097656 uM, individual values, read-out: % activity
# [3] = dose-dependent study, 0.195313 uM, individual values
# [4] = dose-dependent study, 0.390625 uM, individual values
# [5] = dose-dependent study, 0.390625 uM, individual values, read-out: % activity
# [6] = dose-dependent study, 0.78125 uM, individual values
# [7] = dose-dependent study, 0.78125 uM, individual values, read-out: % activity
# [8] = dose-dependent study, 1.5625 uM, individual values
# [9] = dose-dependent study, 1.5625 uM, individual values, read-out: % activity
# [10] = dose-dependent study, 3.125 uM, individual values
# [11] = dose-dependent study, 6.25 uM, individual values
# [12] = dose-dependent study, 6.25 uM, individual values, read-out: % activity
# [13] = dose-dependent study, 12.5 uM, individual values
# [14] = dose-dependent study, 12.5 uM, individual values, read-out: % activity
# [15] = dose-dependent study, 25 uM, individual values
# [16] = dose-dependent study, 50 uM, individual values
# [17] = dose-dependent study, 100 uM, individual values
compound,measurement,setting,value
Cc1cnc(C(=O)N[C@H]2CCCCC/C=C\[C@@H]3C[C@@]3(C(=O)NS(=O)(=O)C3CC3)NC(=O)[C@@H]3C[C@@H](Oc4nc5ccccc5c5ccccc45)CN3C2=O)cn1 [Paritaprevir],"percent enzymatic activity, individual values",,25.5475% and 31.3869% and 37.2263%
same,"percent enzymatic activity, AVG",,31.3869%
same,% activity,[1],101.809% and 115.049%
same,activity at 0.097656 µM,[2],101%
same,% activity,[3],132.87% and 115.668%
same,% activity,[4],114.628% and 102.678%
same,activity at 0.390625 µM,[5],113%
same,% activity,[6],108.219% and 103.297%
same,activity at 0.78125 µM,[7],108%
same,% activity,[8],121.853%
same,activity at 1.5625 µM,[9],114%
same,% activity,[10],108.712% and 136.698%
same,% activity,[11],112.163% and 121.853%
same,activity at 6.25 µM,[12],112%
same,% activity,[13],103.781% and 112.575%
same,activity at 12.5 µM,[14],102%
same,% activity,[15],89.4838% and 96.4929%
same,activity at 25 µM,[15],91%
same,% activity,[16],58.9163% and 64.3286%
same,activity at 50 µM,[16],61.4%
same,% activity,[17],16.5163% and 15.0372% and 1.856%
same,IC50,,73.4 µM
same,inhibitory effect towards 3CLpro enzymatic activity (in words),,partial inhibitory effect
same,inhibition at 50 µM,,70%
same,inhibition at 100 µM,,~80%
CC(C)c1c(C(=O)Nc2ccccc2)c(-c2ccccc2)c(-c2ccc(F)cc2)n1CC[C@@H](O)C[C@@H](O)CC(=O)O [Atrovastatin],"percent enzymatic activity, individual values",,92.1569% and 107.843% and 99.0196%
same,"percent enzymatic activity, AVG",,99.6732%
Maraviroc,"percent enzymatic activity, individual values",,91.5462% and 88.779% and 142.739%
CC(C)(C)OC(=O)N[C@H]1CCCCC/C=C\[C@@H]2C[C@@]2(C(=O)NS(=O)(=O)C2CC2)NC(=O)[C@@H]2C[C@@H](OC(=O)N3Cc4cccc(F)c4C3)CN2C1=O [Danoprevir],"percent enzymatic activity, individual values",,70.073% and 72.9927% and 80.6569%
same,"percent enzymatic activity, AVG",,74.5742%
CC(C)(C)NC(=O)[C@@H]1C[C@@H]2CCCC[C@@H]2CN1C[C@@H](O)[C@H](Cc1ccccc1)NC(=O)[C@H](CC(N)=O)NC(=O)c1ccc2ccccc2n1 [Saquinavir],"percent enzymatic activity, individual values",,65.8986% and 67.2811% and 76.0369%
same,"percent enzymatic activity, AVG",,69.7389%
CCC(C)n1ncn(-c2ccc(N3CCN(c4ccc(OCC5COC(Cn6cncn6)(c6ccc(Cl)cc6Cl)O5)cc4)CC3)cc2)c1=O (centres unmarked) [Itraconazole],"percent enzymatic activity, individual values",,81.4131% and 90.2946% and 93.255%
same,"percent enzymatic activity, AVG",,88.3209%
CC(C)CN(C[C@@H](O)[C@H](Cc1ccccc1)NC(=O)O[C@H]1CO[C@H]2OCC[C@H]21)S(=O)(=O)c1ccc(N)cc1 [Darunavir],"percent enzymatic activity, individual values",,90.3226% and 93.0876% and 98.6175%
same,"percent enzymatic activity, AVG",,94.0092%
CCN(CCO)CCCC(C)Nc1ccnc2cc(Cl)ccc12 (centres unmarked) [Hydroxychloroquine],"percent enzymatic activity, individual values",listed as Hydrochloroquine,83.3868% and 88.8143% and 90.788%
same,"percent enzymatic activity, AVG",,87.663%
NC[C@H]1O[C@H](O[C@H]2[C@H](O[C@@H]3O[C@H](CO)[C@@H](O)[C@H]3O)[C@@H](O)[C@H](N)C[C@@H]2N)[C@H](N)[C@@H](O)[C@@H]1O [Ribostamycin],"percent enzymatic activity, individual values",,96.7864% and 99.3003%
same,"percent enzymatic activity, AVG",,98.4623%
CCC(CC)[C@H](NC(C)=O)[C@@H]1[C@H](O)[C@@H](C(=O)O)C[C@H]1N=C(N)N [Peramivir],"percent enzymatic activity, individual values",,99.7193% and 97.2053% and 109.775%
same,"percent enzymatic activity, AVG",,102.233%
CCOC(=O)C1=C[C@@H](OC(CC)CC)[C@H](NC(C)=O)[C@@H](N)C1 [Oseltamvir Phosphate],"percent enzymatic activity, individual values",,105.843% and 84.7982% and 96.5585%
same,"percent enzymatic activity, AVG",,95.7333%
"CCCCCOc1ccc(-c2cc(-c3ccc(C(=O)N[C@H]4C[C@@H](O)[C@@H](O)NC(=O)[C@@H]5[C@@H](O)[C@@H](C)CN5C(=O)[C@H]([C@H](O)CC(N)=O)NC(=O)[C@H]([C@H](O)[C@@H](O)c5ccc(O)c(OS(=O)(=O)O)c5)NC(=O)[C@@H]5C[C@@H](O)CN5C(=O)[C@H]([C@@H](C)O)NC4=O)cc3)no2)cc1 [Micafungin] (X1-[Orn(4R-OH,5R-OH)]T[Hyp][hTyr(3S-OH,4S-OH,3'-OSO3H)][Gln(3R-OH)][Pro(3S-OH,4S-Me)]; lactam 1-C)","percent enzymatic activity, individual values",,37.5856% and 41.7364% and 49.3462%
same,"percent enzymatic activity, AVG",,42.8894%
same,% activity,[1],93.428% and 107.627%
same,activity at 0.097656 µM,[2],103%
same,% activity,[3],93.921% and 112.575%
same,activity at 0.195313 µM,"dose-dependent study, 0.195313 uM, individual values, read-out: % activity",95.4%
same,% activity,[4],94.414% and 111.957%
same,activity at 0.390625 µM,[5],94.9%
same,% activity,[6],110.101%
same,activity at 0.78125 µM,[7],101%
same,% activity,[8],99.8373% and 115.049%
same,activity at 1.5625 µM,[9],101%
same,% activity,[10],103.781% and 119.998%
same,activity at 3.125 µM,"dose-dependent study, 3.125 uM, individual values, read-out: % activity",105%
same,% activity,[11],110.101%
same,activity at 6.25 µM,[12],105%
same,% activity,[13],103.915%
same,activity at 12.5 µM,[14],92.9%
same,% activity,[15],86.0326% and 95.2558%
same,activity at 25 µM,[15],79.6%
same,% activity,[16],43.6326% and 50.0419% and 67.4213%
same,% activity,[17],20.9535% and 30.3087%
same,activity at 100 µM,"dose-dependent study, 100 uM, individual values, read-out: % activity",19%
same,IC50,,47.6 µM
same,inhibitory effect towards 3CLpro enzymatic activity (in words),,partial inhibitory effect
same,inhibition at 50 µM,,57%
same,inhibition at 100 µM,,~80%
COc1cnc(-n2cnc(C)n2)c2[nH]cc(C(=O)C(=O)N3CCN(C(=O)c4ccccc4)CC3)c12 [Temsavir],"percent enzymatic activity, individual values",,93.8534% and 98.0433% and 100.976%
same,"percent enzymatic activity, AVG",,97.6243%
O=C(O)[C@H]1C2CCC(CC2)[C@@H]1Nc1nc(-c2c[nH]c3ncc(F)cc23)ncc1F [Pimodivir],"percent enzymatic activity, individual values",listed as Pimodvir,92.1775% and 98.4623% and 116.898%
same,"percent enzymatic activity, AVG",,102.513%
CC[C@@H]([C@H](C)O)n1ncn(-c2ccc(N3CCN(c4ccc(OC[C@@H]5CO[C@@](Cn6cncn6)(c6ccc(F)cc6F)C5)cc4)CC3)cc2)c1=O [Posaconazole],"percent enzymatic activity, individual values",,84.6282% and 81.1692%
same,"percent enzymatic activity, AVG",,83.4752%
